According to paper PMC12897534, “Design, synthesis, and antiproliferative activity of new 5-ethylsulfonyl-indazole-3-carbohydrazides as dual EGFR/VEGFR-2 kinases inhibitors” (Journal of Enzyme Inhibition and Medicinal Chemistry, 2025):
“And” between values parts separate entries of the source, which are not always exact repeats. Identical values can stand only once.

What was measured:
[1] = tested on: A-549 (lung) cancer cell line; experiment: Antiproliferative assay, A-549; assay type: cell-based, human; conditions: Homo sapiens, A549; read-out: Antiproliferative activity IC50 ± SEM, A-549
Description: (§1) Table 1 presents the median inhibitory concentration (IC50) and GI50 (mean IC50) for the four cancer cell lines.
(§2) Refer to Appendix A for additional information.
(§3) To explore the antiproliferative potential of compounds propidium iodide fluorescence assay was performed using different cell lines such as Panc-1 (pancreas cancer cell line) [Panc-1-CTC (RRID:CVCL_VQ69)], MCF-7 (breast cancer cell line) [MCF-7 (RRID:CVCL_0031)], HT-29 (colon cancer cell line) [HT-29 (RRID:CVCL_0320)] and A-549 (epithelial cancer cell line)[A-549 (RRID:CVCL_0023)], respectively. All cell lines were obtained from ATCC (American Type Cell Culture).
(§4) To calculate the total nuclear DNA, a fluorescent dye (propidium iodide, PI) is used which can attach to the DNA, thus offering a quick and precise technique. PI cannot pass through the cell membrane and its signal intensity can be considered as directly proportional to quantity of cellular DNA. Cells whose cell membranes are damaged or have changed permeability are counted as dead ones. The assay was performed by seeding the cells of different cell lines at a density of 3000-7500 cells/well (in 200 μl medium) in culture plates followed by incubation for 24 h at 37 °C in humidified 5% CO2 /95% air atmospheric conditions. The medium was removed; the compounds were added to the plates at 10 μM concentrations (in 0.1% DMSO) in triplicates, followed by incubation for 48 h. DMSO (0.1%) was used as control. After incubation, medium was removed followed by the addition of PI (25 μl, 50 μg/mL in water/medium) to each well of the plates. At -80 °C, the plates were allowed to freeze for 24 h, followed by thawing at 25 °C. A fluorometer (Polar-Star BMG Tech) was used to record the readings at excitation and emission wavelengths of 530 and 620 nm for each well. The percentage cytotoxicity of compounds was calculated using the following formula: […]

[2] = tested on: MCF-7 (breast) cancer cell line; experiment: Antiproliferative assay, MCF-7; assay type: cell-based, human; conditions: Homo sapiens, MCF7; read-out: Antiproliferative activity IC50 ± SEM, MCF-7
Description: as §1, §2, §3, §4

[3] = tested on: Panc-1 (pancreatic) cancer cell line; experiment: Antiproliferative assay, Panc-1; assay type: cell-based, human; conditions: Homo sapiens, PANC-1; read-out: Antiproliferative activity IC50 ± SEM, Panc-1
Description: as §1, §2, §3, §4

[4] = tested on: HT-29 (colon) cancer cell line; experiment: Antiproliferative assay, HT-29; assay type: cell-based, human; conditions: Homo sapiens, read-out: Antiproliferative activity IC50 ± SEM, HT-29
Description: as §1, §2, §3, §4

[5] = tested on: four cancer cell lines (A-549, MCF-7, Panc-1, HT-29); experiment: Antiproliferative assay, mean over the four cancer cell lines (GI50); assay type: cell-based, human; conditions: for IC50: Homo sapiens, mean IC50 of A-549, MCF-7, Panc-1, HT-29
Description: as §1, §2
All cell lines were obtained from ATCC (American Type Cell Culture). […]

[6] = Cell viability assay (MTT) on normal cell line; conditions: human, MCF-10A normal mammary gland epithelial cells
Description: The viability of the investigated compounds was assessed using the normal human mammary gland epithelial cell line MCF-10A. After four days of incubation on MCF-10A cells with 50 µM of each examined compound, cell viability was assessed using the MTT test[46]^,[47].
The viability of 7a–o was determined using the normal human mammary gland epithelial (MCF-10A) cell line^46,[47].
MTT assay was performed to investigate the effect of the synthesized compounds on mammary epithelial cells (MCF-10A). The cells were propagated in medium consisting of Ham's F-12 medium/ Dulbecco's modified Eagle's medium (DMEM) (1:1) supplemented with 10% foetal calf serum (GIBCO, UK), 2 mM glutamine, insulin (10 μg/mL), hydrocortisone (500 ng/mL) and epidermal growth factor (20 ng/mL). Trypsin ethylenediamine tetra acetic acid (EDTA) was used to passage the cells after every 2-3 days. 96-well flat-bottomed cell culture plates were used to seed the cells at a density of 10^4 cells mL^-1. The medium was aspirated from all the wells of culture plates after 24 h followed by the addition of synthesized compounds (in 200 μL medium to yield a final concentration of 0.1% (v/v) dimethyl sulfoxide) into individual wells of the plates. Four wells were designated to a single compound. The plates were allowed to incubate at 37°C for 96 h. Afterwards, the medium was aspirated and 3-[4,5-dimethylthiazol-2-yl]-2,5-diphenyltetrazolium bromide (MTT) (0.4 mg/mL) in medium was added to each well and subsequently incubated for 3 h. The medium was aspirated and 150 μL dimethyl sulfoxide (DMSO) was added to each well. The plates were vortexed followed by the measurement of absorbance at 540 nm on a microplate reader.

[7] = target: EGFR (Homo sapiens, UniProt P00533); experiment: EGFR-TK inhibitory assay; conditions: EGFR inhibition IC50 ± SEM
Description: To record autophosphorylation level, EGFR kinase assay was carried out on the basis of DELFIA/Time-Resolved Fluorometry. […] Each compound (10 μL) was incubated with recombinant enzyme (10 μL, 5 ng for EGFR, 1:80 dilution in 100 mM HEPES) for 10 min at 25 °C, subsequent to the addition of 5X buffer (10 μL, containing 2 mM MnCl2, 100 μM Na3VO4, 20 mM HEPES and 1 mM DTT) and ATP-MgCl2 (20 μL, containing 0.1 mM ATP and 50 mM MgCl2) and incubation for 1h. The negative and positive controls were included in each plate by the incubation of enzyme either with or without ATP-MgCl2. The liquid was removed after incubation and the plates were washed thrice using a wash buffer. The Europium-tagged antiphosphotyrosine antibody (75 μL, 400 ng) was added to each well followed by incubation of 1h and then washing of the plates using buffer. […] The autophosphorylation percentage inhibition by compounds was calculated using the following equation:
The majority of signals detected by antiphosphotyrosine antibody were from EGFR because the enzyme preparation contained low impurities.

[8] = target: VEGFR-2 (Homo sapiens, UniProt P35968); experiment: VEGFR-2 kinase inhibitory assay
VEGFR-2, sequence (P35968 20-1356): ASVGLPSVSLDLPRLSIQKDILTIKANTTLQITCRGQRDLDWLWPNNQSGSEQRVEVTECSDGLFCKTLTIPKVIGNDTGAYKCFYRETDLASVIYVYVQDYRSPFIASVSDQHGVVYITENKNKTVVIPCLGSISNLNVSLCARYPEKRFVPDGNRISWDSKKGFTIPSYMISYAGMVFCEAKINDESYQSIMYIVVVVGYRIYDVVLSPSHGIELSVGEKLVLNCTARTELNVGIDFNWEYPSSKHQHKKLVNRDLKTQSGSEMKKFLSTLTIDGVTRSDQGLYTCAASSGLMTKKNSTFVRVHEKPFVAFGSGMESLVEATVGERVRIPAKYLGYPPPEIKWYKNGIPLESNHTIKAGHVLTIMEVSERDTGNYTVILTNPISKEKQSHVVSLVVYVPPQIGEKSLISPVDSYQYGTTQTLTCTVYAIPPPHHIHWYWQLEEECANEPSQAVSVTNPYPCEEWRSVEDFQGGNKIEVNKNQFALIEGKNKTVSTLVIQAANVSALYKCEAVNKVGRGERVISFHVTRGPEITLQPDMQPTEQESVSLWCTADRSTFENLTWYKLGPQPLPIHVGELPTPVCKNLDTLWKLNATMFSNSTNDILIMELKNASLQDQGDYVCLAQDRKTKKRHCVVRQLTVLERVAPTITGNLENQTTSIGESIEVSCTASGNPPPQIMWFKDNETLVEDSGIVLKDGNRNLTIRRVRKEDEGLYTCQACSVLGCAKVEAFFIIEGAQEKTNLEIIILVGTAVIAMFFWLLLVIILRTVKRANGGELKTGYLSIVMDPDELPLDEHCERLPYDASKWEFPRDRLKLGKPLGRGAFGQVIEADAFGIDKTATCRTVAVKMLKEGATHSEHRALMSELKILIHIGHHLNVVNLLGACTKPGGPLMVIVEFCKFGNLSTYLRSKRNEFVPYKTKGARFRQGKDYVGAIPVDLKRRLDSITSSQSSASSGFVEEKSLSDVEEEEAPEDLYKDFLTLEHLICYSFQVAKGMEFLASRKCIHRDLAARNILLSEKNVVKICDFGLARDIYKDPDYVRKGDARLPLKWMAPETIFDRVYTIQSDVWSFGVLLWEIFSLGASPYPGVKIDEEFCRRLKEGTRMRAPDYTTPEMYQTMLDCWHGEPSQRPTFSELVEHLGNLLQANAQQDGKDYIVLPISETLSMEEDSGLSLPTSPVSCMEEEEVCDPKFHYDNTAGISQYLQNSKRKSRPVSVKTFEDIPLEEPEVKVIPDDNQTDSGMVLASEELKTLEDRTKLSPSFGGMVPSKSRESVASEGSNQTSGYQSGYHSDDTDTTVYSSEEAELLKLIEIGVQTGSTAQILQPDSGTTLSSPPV
Description: Prepare all the solutions using autoclaved, deionized water and analytical grade reagents. Prepare and store all the reagents at room temperature (unless indicated otherwise). […] The assays used an ULight-labeled peptide substrate and a Europium-W1024-labeled antiphosphotyrosine antibody. The VEGFR-2 was purchased from Carna Biosciences, Inc. (New York, USA). The 384-well plates were obtained from PerkinElmer. […] Negative control: 2.5 μL/well 4×substrate/ATP mixture and 7.5 μL 1×kinase assay buffer in 384-well plate well. […] After incubation at room temperature and dark for 60 min, 5 μL 4×stop solution was added to corresponding wells to react for 5 min and then 5 μL 4×detection mix was added to the corresponding wells of a 384-well plate. The mixture was centrifugally mixed and stayed for 60 min at room temperature for color development. The plate was read using an Envision plate reader. The inhibition rate (%) = (positive well reading-compound well reading)/(positive well reading-negative well reading)×100. The corresponding IC50 values were calculated using GraphPad Prism 5.0.

EGFR, sequence (P00533 669-1210): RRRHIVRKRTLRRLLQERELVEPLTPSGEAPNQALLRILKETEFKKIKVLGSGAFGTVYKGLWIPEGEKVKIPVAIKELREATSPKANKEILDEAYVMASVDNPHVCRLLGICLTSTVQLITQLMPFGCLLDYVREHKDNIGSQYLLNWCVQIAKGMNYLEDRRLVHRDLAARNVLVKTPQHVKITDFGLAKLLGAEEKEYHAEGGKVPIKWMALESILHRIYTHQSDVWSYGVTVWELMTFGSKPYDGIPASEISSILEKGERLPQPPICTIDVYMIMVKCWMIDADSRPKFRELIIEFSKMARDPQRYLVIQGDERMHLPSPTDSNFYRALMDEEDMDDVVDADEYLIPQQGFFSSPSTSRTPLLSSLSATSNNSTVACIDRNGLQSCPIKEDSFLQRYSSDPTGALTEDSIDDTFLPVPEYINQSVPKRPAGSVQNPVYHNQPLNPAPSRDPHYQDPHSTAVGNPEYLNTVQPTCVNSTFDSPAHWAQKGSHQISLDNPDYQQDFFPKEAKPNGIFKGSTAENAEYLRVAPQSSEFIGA

Compound	IC50 [1] [nM]	IC50 [2] [nM]	IC50 [3] [nM]	IC50 [4] [nM]	IC50 [5] [nM]	IC50 [7]	IC50 [8] [nM]	Fold less potent than 7 g (GI50) ([5]; GI50 ratio to 7 g) [fold]	Fold less potent than 7i (GI50) ([5]; GI50 ratio to 7i) [fold]	Fold less potent than 7 l (GI50) ([5]; GI50 ratio to 7 l) [fold]	Fold less potent than 7j (GI50) ([5]; GI50 ratio to 7j) [fold]	viability at 96 h, 50 µM [6] [%]
CCS(=O)(=O)c1ccc2[nH]nc(C(=O)N/N=C/c3cccnc3)c2c1 [Compound 7b, (E)-5-(ethylsulfonyl)-N′-(pyridin-3-ylmethylene)-1H-indazole-3-carbohydrazide]	47 ± 3	50 ± 4	48 ± 3	48 ± 3	48							92
CCS(=O)(=O)c1ccc2[nH]nc(C(=O)N/N=C/c3ccc(OC)c(O)c3)c2c1 [Compound 7g, (E)-5-(ethylsulfonyl)-N′-(3-hydroxy-4-methoxybenzylidene)-1H-indazole-3-carbohydrazide]	35 ± 2	38 ± 2	36 ± 2	36 ± 2	36	81 nM and 83 nM	39 ± 2					91
CCS(=O)(=O)c1ccc2[nH]nc(C(=O)N/N=C/c3ccc4c(ccn4C)c3)c2c1 [Compound 7f, (E)-5-(ethylsulfonyl)-N′-((1-methyl-1H-indol-5-yl)methylene)-1H-indazole-3-carbohydrazide]	71 ± 6	75 ± 6	73 ± 6	72 ± 6	73							92
CCS(=O)(=O)c1ccc2[nH]nc(C(=O)N/N=C/c3ccc(C#N)cc3)c2c1 [Compound 7a, (E)-N′-(4-Cyanobenzylidene)-5-(ethylsulfonyl)-1H-indazole-3-carbohydrazide]	77 ± 6	79 ± 6	77 ± 6	78 ± 6	78			2.1	2.4	1.9		94
CCS(=O)(=O)c1ccc2[nH]nc(C(=O)N/N=C/c3nccs3)c2c1 [Compound 7e, (E)-5-(ethylsulfonyl)-N′-(thiazol-2-ylmethylene)-1H-indazole-3-carbohydrazide]	58 ± 4	61 ± 5	60 ± 5	60 ± 5	60						2.3	94
C#Cc1cccc(Nc2ncnc3cc(OCCOC)c(OCCOC)cc23)c1 [Erlotinib, reference compound]	30 ± 3	40 ± 3	30 ± 3	30 ± 3								
CCS(=O)(=O)c1ccc2[nH]nc(C(=O)N/N=C/c3ccc4ncccc4c3)c2c1 [Compound 7d, (E)-5-(ethylsulfonyl)-N′-(quinolin-6-ylmethylene)-1H-indazole-3-carbohydrazide]	53 ± 4	55 ± 4	54 ± 4	54 ± 4	54							92
CCS(=O)(=O)c1ccc2[nH]nc(C(=O)N/N=C/c3ccc4c(cnn4C)c3)c2c1 [Compound 7c, (E)-5-(ethylsulfonyl)-N′-((1-methyl-1H-indazol-5-yl)methylene)-1H-indazole-3-carbohydrazide]	56 ± 4	59 ± 4	58 ± 4	58 ± 4	58							91

Now from value to compound, other results behind:

IC50 [1] [nM]	IC50 [2] [nM]	IC50 [3] [nM]	IC50 [4] [nM]	IC50 [5] [nM]	IC50 [7]	IC50 [8] [nM]	Fold less potent than 7 g (GI50) ([5]; GI50 ratio to 7 g) [fold]	Fold less potent than 7i (GI50) ([5]; GI50 ratio to 7i) [fold]	Fold less potent than 7 l (GI50) ([5]; GI50 ratio to 7 l) [fold]	Fold less potent than 7j (GI50) ([5]; GI50 ratio to 7j) [fold]	Compound	viability at 96 h, 50 µM [6] [%]
67 ± 5	70 ± 6	68 ± 5	68 ± 5	68							CCS(=O)(=O)c1ccc2[nH]nc(C(=O)N/N=C/c3cncnc3)c2c1 [Compound 7h, (E)-5-(ethylsulfonyl)-N′-(pyrimidin-5-ylmethylene)-1H-indazole-3-carbohydrazide]	93
49 ± 3	52 ± 4	50 ± 4	50 ± 4	50							CCS(=O)(=O)c1ccc2[nH]nc(C(=O)N/N=C/C3CC3)c2c1 [Compound 7m, (E)-N′-(cyclopropylmethylene)-5-(ethylsulfonyl)-1H-indazole-3-carbohydrazide]	94
63 ± 5	66 ± 5	64 ± 5	64 ± 5	64							CCS(=O)(=O)c1ccc2[nH]nc(C(=O)N/N=C/C3CCCC3)c2c1 [Compound 7n, (E)-N′-(cyclopentylmethylene)-5-(ethylsulfonyl)-1H-indazole-3-carbohydrazide]	90
31 ± 2	34 ± 2	32 ± 2	32 ± 2	32	83 nM and 81 nM	36 ± 2					CCS(=O)(=O)c1ccc2[nH]nc(C(=O)N/N=C/c3ccc(O)cc3)c2c1 [Compound 7i, (E)-5-(ethylsulfonyl)-N′-(4-hydroxybenzylidene)-1H-indazole-3-carbohydrazide]	92
